Laboratory results from patent US20190330224A1, “ACC INHIBITORS AND USES THEREOF” (Gilead Apollo, LLC, priority 2015, published 2019).
Values after ≈ are worked out from the molar mass of the structure shown.

Assays:
[1] = target: Human ACC2 (Homo sapiens, UniProt O00763); test: In vitro ACC2 inhibition assay (ADP-Glo), human ACC2; format: biochemical; conditions: 5 nM ACC2, 20 μM ATP, 20 μM acetyl-CoA
[2] = system: C. albicans ATCC 90028; test: Anti-Fungal Activity Assay (broth microtiter MIC), C. albicans; format: cell-based, Candida albicans; conditions: Candida albicans, ATCC90028, 48 h, 3 replicates; MIC recorded at 48 h; read-out: MIC C. albicans ATCC 90028
Summary of the method: (§1)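 Susceptibility testing used direct colony suspensions in RPMI 1640+MOPS from Sabouraud dextrose agar grown at 35° C. Endpoints were visual MICs at 48 h under CLSI M27-A3 microtiter conditions, plus a 24 h reading for soraphen.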

[3] = system: C. krusei ATCC 6258; test: Anti-Fungal Activity Assay (broth microtiter MIC), C. krusei; format: cell-based, Candida krusei; conditions: Pichia kudriavzevii, ATCC6258, 48 h, 3 replicates; MIC recorded at 48 h; read-out: MIC C. krusei ATCC 6258
Summary of the method: as §1

[4] = system: C. parapsilosis ATCC 22019; test: Anti-Fungal Activity Assay (broth microtiter MIC), C. parapsilosis; format: cell-based, Candida parapsilosis; conditions: Lodderomyces parapsilosis, ATCC22019, 48 h, 3 replicates; MIC recorded at 48 h; read-out: MIC C. parapsilosis ATCC 22019
Summary of the method: as §1

[5] = system: Botrtyis cinerea (Bc); test: Growth inhibition assay of fungal pathogens, Bc; format: cell-based; conditions: 48 hours; read-out: Concentration at 90% Inhibition, Bc
Procedure: (§2) Compounds of the present invention were evaluated in a growth inhibition assay to determine the ability to control the growth of fungal pathogens, such as Botrtyis cinerea (Bc). Collectotrichum graminicola (Cg), Diplodia maydis (Dm), Fusarium moniliforme (Fm), Fusarium virguliforme (Fv), Phytophthora capsici (Pc), Rhizoctonia solani (Rs), and Septoria tritici (St). Compounds to be tested were dissolved in DMSO at 2.5 mg/ml to produce compound stock solutions (“stocks”). Stocks were diluted with DMSO by a five-fold dilution in a 96-well stock plate, and two sets of final concentrations of 50, 10, and 2 ppm or 2, 0.4, and 0.08 ppm were obtained in vitro. A set of positive controls was also prepared, with various concentrations of Soraphen (2, 0.4, and 0.08 ppm), Metalaxyl (1.1, 0.22, and 0.04 ppm), and Metconazole (2, 0.4, and 0.08 ppm or 0.2, 0.04, and 0.008 ppm) after the five-fold dilutions. Negative controls on each plate included 2% DMSO, water, and a blank (media+2% DMSO). Fungal spores were isolated from previously sub-cultured plates of Botrtyis cinerea (Bc), Collectotrichum graminicola (Cg), Diplodia maydis (Dm), Fusarium moniliforme (Fm), Fusarium virguliforme (Fv), Phytophthora capsici (Pc), and Septoria tritici (St). The isolated spores were diluted to individual concentrations with a 17% V8 liquid media. For Rhizoctonia solani (Rs) and Pythium irregulare, 1.5 mm mycelial plugs were used in place of spores and ¼ Potato Dextrose Broth (PDB) was used for dilution. The spore concentrations and plug sizes were based on growth curves generated at 48 hours for each pathogen. In a second 96-well plate, the spores or mycelial plugs, media, diluted compound solutions, and controls were combined. Once the compound was added, a true final concentration of compound in each well was measured by an OD600 reading, which adjusted for any compound precipitation that might have occurred in the well. Plate readings were repeated at both 24 and 48 hours. The blank negative control was used as a background subtraction. Additional visual ratings were performed at both 24 and 48 hours for checking on precipitation and confirming efficacy. Visual and OD600 ratings of the compounds at 48 hours were compared to the 2% DMSO negative control, and the percent of pathogen growth inhibition was determined based on those values.

[6] = system: Collectotrichum graminicola (Cg); test: Growth inhibition assay of fungal pathogens, Cg; format: cell-based; conditions: 48 hours; read-out: Concentration at 90% Inhibition, Cg
Procedure: as §2

[7] = system: Diplodia maydis (Dm); test: Growth inhibition assay of fungal pathogens, Dm; format: cell-based; conditions: Stenocarpella maydis; 48 hours; read-out: Concentration at 90% Inhibition, Dm
Procedure: as §2

[8] = system: Fusarium moniliforme (Fm); test: Growth inhibition assay of fungal pathogens, Fm; format: cell-based; conditions: Fusarium verticillioides; 48 hours; read-out: Concentration at 90% Inhibition, Fm
Procedure: as §2

[9] = system: Fusarium virguliforme (Fv); test: Growth inhibition assay of fungal pathogens, Fv; format: cell-based; conditions: 48 hours, read-out: Concentration at 90% Inhibition, Fv
Procedure: as §2

[10] = system: Phytophthora capsici (Pc); test: Growth inhibition assay of fungal pathogens, Pc; format: cell-based; conditions: 48 hours, read-out: Concentration at 90% Inhibition, Pc
Procedure: as §2

[11] = system: Rhizoctonia solani (Rs); test: Growth inhibition assay of fungal pathogens, Rs; format: cell-based; conditions: 48 hours, read-out: Concentration at 90% Inhibition, Rs
Procedure: as §2

[12] = system: Septoria tritici (St); test: Growth inhibition assay of fungal pathogens, St; format: cell-based; conditions: Zymoseptoria tritici; 48 hours; read-out: Concentration at 90% Inhibition, St
Procedure: as §2

[13] = system: Blumeria graminis f sp. hordei; test: Foliar protection test, barley powdery mildew control; format: in vivo, Blumeria graminis f sp. hordei on Hordeum vulgare cv. Perry; conditions: 168 h, compound concentration 50 ppm, foliar spray, evaluated 7 days after inoculation, read-out: Barley Powdery Mildew Control at 50 ppm
Procedure: Compounds of the present invention were evaluated in a foliar protection test to determine the ability to control barley powdery mildew. Plants (Hordeum vulgare cv. Perry) were grown for 6 days in 2-inch square pots containing Metromix 200 medium amended with fertilizer. For propagation, plants were maintained in a growth chamber at conditions of 20 to 21° C., 16 hour light cycle, 400 uM of light, 70% humidity, and with sub-irrigation as needed. After inoculation with the pathogen of Blumeria graminis f sp. hordei, plants were kept at conditions of 20 to 22° C., 70% relative humidity, and 200 uM of light to facilitate infection and disease development. At 6 days after planting (1st true leaf fully expanded), the test compounds were dissolved in a solution of 5% acetone and 0.005% Tween 80 surfactant. An atomizer was used for applying the solution onto both sides of the leaves until thoroughly wetted. The amount of the compound applied to the leaves was typically 200, 100, 50, 10, or 2 ppm, but it may vary. At 24 hours after treatment, the plants were moved to a cooler chamber and inoculated by shaking well-colonized, untreated stock plants above the treated plants. This allowed producing a settling cloud of spores and resulting in uniform infection. Efficacy was evaluated in 7 days later by examining leaves for colonization and growth of mildew. Table 5 lists the results of barley powdery mildew control at a compound concentration of 50 ppm or 10 ppm. Compounds having an activity designated as “AA” provided a compound having >85% control of barley powdery mildew; compounds having an activity designated as “A” provided a compound having from 70% to 84% control of barley powdery mildew; compounds having an activity designated as “B” provided a compound having from 50 to 69% control of barley powdery mildew; compounds having an activity designated as “C” provided a compound having from 25 to 49% control of barley powdery mildew; and compounds having an activity designated as “D” provided a compound having <25% control of barley powdery mildew.

[14] = target: Fungal ACC2 (UniProt Q00955); conditions: read-out: Fungal ACC2 (IC50, in vitro ACC2 inhibition)
Chain of Fungal ACC2 (Q00955 whole entry): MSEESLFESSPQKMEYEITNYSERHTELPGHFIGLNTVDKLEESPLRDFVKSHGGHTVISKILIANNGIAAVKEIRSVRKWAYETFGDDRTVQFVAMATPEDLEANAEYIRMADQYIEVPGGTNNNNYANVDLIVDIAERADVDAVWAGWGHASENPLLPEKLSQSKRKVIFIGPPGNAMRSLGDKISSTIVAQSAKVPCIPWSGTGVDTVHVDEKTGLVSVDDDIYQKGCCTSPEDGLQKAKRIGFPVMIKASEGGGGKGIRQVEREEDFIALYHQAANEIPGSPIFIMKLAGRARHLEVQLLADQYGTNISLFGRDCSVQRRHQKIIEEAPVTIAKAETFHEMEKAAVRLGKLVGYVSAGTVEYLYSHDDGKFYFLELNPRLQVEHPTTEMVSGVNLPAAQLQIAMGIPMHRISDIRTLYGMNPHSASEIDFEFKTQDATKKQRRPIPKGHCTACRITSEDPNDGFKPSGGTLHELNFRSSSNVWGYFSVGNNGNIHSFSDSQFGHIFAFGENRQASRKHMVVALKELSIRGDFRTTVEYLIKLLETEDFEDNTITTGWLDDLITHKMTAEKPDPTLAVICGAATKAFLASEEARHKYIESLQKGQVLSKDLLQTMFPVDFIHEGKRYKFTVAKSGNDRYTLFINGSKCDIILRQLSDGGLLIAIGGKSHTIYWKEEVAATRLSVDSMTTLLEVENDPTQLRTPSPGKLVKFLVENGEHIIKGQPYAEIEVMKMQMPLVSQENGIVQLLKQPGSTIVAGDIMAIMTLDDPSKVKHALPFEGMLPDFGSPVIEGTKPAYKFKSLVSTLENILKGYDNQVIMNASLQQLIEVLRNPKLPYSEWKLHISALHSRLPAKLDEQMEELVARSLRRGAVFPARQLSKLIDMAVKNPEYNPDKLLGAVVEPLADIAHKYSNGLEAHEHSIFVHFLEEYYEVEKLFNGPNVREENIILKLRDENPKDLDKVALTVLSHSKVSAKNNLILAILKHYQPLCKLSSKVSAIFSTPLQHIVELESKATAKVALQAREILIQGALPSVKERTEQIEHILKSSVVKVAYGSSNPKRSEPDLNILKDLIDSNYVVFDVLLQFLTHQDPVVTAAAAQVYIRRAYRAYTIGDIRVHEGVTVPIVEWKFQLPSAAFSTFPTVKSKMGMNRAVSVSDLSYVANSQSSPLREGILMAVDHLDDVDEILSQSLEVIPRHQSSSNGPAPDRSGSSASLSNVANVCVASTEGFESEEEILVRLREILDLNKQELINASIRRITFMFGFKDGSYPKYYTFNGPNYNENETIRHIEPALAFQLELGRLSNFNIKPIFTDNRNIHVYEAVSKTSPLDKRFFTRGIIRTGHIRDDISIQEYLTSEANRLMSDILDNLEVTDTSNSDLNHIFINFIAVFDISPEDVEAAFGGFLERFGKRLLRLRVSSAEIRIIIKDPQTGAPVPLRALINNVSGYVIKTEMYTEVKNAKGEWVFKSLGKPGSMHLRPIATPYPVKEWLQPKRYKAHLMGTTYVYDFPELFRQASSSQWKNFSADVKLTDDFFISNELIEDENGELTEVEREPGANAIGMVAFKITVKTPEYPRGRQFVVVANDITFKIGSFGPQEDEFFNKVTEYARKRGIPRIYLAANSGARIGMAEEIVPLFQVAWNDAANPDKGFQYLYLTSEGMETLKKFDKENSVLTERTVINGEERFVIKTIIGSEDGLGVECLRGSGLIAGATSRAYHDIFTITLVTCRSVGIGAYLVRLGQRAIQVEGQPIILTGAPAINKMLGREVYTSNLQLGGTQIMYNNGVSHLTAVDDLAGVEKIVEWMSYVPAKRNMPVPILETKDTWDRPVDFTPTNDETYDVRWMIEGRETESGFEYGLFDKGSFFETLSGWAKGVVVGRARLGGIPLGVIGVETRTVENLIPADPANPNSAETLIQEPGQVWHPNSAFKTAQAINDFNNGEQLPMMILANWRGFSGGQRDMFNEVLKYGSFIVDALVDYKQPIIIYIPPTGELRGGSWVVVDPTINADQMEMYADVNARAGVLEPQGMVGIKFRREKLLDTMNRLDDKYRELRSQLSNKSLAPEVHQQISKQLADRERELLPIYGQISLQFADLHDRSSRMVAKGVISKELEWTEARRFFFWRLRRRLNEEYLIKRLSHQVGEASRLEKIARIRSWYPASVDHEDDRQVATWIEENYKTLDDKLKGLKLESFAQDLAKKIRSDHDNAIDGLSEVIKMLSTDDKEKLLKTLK

[15] = compound concentration 10 ppm, foliar spray, evaluated 7 days after inoculation

Chain of Human ACC2 (O00763 whole entry): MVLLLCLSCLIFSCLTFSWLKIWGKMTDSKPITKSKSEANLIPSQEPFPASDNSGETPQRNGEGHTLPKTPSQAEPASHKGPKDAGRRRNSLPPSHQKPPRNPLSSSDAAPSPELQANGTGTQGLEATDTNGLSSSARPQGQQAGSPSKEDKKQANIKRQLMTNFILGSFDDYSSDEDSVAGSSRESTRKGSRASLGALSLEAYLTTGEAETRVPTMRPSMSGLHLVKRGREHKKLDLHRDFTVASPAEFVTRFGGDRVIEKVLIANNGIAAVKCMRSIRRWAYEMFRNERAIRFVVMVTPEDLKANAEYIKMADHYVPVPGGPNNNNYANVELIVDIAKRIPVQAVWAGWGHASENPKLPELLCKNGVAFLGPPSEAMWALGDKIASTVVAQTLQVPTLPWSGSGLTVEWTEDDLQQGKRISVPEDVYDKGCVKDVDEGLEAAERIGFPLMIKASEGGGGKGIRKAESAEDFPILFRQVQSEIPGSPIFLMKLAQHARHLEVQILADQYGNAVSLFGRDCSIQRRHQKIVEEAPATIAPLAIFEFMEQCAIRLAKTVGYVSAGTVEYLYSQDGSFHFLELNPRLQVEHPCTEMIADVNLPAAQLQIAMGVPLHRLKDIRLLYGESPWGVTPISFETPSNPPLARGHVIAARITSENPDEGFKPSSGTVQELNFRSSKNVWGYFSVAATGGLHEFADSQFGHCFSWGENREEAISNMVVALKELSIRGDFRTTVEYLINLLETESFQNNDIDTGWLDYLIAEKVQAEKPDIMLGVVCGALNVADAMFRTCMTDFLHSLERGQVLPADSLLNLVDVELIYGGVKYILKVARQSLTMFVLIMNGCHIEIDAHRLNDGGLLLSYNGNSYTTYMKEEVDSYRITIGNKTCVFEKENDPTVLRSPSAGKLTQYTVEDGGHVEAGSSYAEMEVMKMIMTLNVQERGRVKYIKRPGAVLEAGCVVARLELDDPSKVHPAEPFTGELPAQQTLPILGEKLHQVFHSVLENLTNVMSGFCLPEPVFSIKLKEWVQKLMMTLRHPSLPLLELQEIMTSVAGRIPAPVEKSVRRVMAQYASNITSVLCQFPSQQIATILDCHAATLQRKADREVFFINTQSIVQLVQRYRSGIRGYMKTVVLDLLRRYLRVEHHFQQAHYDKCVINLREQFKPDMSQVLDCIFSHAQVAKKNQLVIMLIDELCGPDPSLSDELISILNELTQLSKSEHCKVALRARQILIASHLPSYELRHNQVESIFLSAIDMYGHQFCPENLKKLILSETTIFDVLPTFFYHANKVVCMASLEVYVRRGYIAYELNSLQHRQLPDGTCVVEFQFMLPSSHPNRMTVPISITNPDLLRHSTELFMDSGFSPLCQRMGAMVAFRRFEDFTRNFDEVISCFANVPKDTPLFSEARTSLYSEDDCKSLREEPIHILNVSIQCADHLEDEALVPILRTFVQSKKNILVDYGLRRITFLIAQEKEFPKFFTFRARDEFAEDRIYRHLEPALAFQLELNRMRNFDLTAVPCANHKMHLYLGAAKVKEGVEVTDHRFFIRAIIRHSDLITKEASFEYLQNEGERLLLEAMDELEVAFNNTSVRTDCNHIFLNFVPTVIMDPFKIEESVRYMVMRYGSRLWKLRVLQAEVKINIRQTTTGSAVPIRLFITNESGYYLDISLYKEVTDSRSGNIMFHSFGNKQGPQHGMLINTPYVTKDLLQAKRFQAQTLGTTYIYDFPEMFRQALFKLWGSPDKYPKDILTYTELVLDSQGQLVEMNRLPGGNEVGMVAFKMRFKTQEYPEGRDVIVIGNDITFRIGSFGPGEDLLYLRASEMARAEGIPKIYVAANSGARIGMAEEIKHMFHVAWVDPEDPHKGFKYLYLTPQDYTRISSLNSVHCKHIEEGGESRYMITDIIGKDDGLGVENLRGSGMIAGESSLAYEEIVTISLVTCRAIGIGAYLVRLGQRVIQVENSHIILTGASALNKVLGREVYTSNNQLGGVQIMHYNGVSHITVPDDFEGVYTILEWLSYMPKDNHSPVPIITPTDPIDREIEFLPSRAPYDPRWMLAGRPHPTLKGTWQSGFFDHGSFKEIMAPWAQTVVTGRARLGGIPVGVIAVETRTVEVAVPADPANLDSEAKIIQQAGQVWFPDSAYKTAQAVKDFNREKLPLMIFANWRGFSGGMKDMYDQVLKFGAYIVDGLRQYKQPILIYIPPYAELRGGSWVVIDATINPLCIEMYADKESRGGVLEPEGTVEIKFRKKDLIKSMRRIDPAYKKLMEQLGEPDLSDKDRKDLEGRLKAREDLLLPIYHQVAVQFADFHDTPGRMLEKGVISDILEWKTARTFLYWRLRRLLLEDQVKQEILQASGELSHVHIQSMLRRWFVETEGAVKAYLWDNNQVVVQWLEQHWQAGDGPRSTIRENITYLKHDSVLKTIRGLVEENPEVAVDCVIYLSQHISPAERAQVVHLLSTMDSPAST

| Structure (SMILES) | IC50 [1] | MIC [2] | MIC [3] | MIC [4] | IC90 [5] | IC90 [6] | IC90 [7] | IC90 [8] | IC90 [9] | IC90 [10] | IC90 [11] | IC90 [12] | pest or weed control at 50 ppm [13] | IC50 [14] | Barley Powdery Mildew Control at 10 ppm [15] |
| --- | --- | --- | --- | --- | --- | --- | --- | --- | --- | --- | --- | --- | --- | --- | --- |
| COCCO[C@@H](Cn1c(=O)n([C@H]2CCCN(C(C)C)C2=O)c(=O)c2c(C)c(-n3nccn3)sc21)c1cc(F)ccc1OC [Compound I-78, 1-((R)-2-(5-fluoro-2-methoxyphenyl)-2-(2-methoxy-ethoxy)ethyl)-3-((S)-1-isopropyl-2-oxopiperidin-3-yl)-5-methyl-6-(2H-1,2,3-triazol-2-yl)thieno[2,3-d]pyrimidine-2,4(1H,3H)-dione] | 10 to 100 nM | 2.1 to 4 µg/mL (≈ 3.42 to 6.51 µM) | 2.1 to 4 µg/mL (≈ 3.42 to 6.51 µM) | 2.1 to 4 µg/mL (≈ 3.42 to 6.51 µM) | 2 µg/mL (≈ 3.25 µM) | > 50 µg/mL | 10 µg/mL (≈ 16.3 µM) | 2 µg/mL (≈ 3.25 µM) | > 50 µg/mL | > 50 µg/mL | > 50 µg/mL | > 50 µg/mL | 25 to 49% | 2 to 10 nM |  |
| COCCO[C@@H](Cn1c(=O)n([C@@H]2CCCN(C(C)C)C2=O)c(=O)c2c(C)c(-n3nccn3)sc21)c1cc(F)ccc1OC [Compound I-79, 1-((R)-2-(5-fluoro-2-methoxyphenyl)-2-(2-methoxy-ethoxy)ethyl)-3-((R)-1-isopropyl-2-oxopiperidin-3-yl)-5-methyl-6-(2H-1,2,3-triazol-2-yl)thieno[2,3-d]pyrimidine-2,4(1H,3H)-dione] | 100 to 1000 nM | 1.1 to 2 µg/mL (≈ 1.79 to 3.25 µM) | 1.1 to 2 µg/mL (≈ 1.79 to 3.25 µM) | 0.25 to 1 µg/mL (≈ 0.407 to 1.63 µM) | > 50 µg/mL | > 50 µg/mL | 10 µg/mL (≈ 16.3 µM) | 10 µg/mL (≈ 16.3 µM) | > 50 µg/mL | > 50 µg/mL | > 50 µg/mL | > 50 µg/mL | 50 to 69% | 2 to 10 nM |  |
| COc1ccc(F)cc1[C@H](Cn1c(=O)n([C@H]2CCN(C)C2=O)c(=O)c2c(C)c(-n3nccn3)sc21)OCCC#N [Compound I-108, 3-((R)-1-(5-fluoro-2-methoxyphenyl)-2-(5-methyl-3-((S)-1-methyl-2-oxopyrrolidin-3-yl)-2,4-dioxo-6-(2H-1,2,3-triazol-2-yl)-3,4-dihydro-thieno[2,3-d]pyrimidin-1 (2H)-yl)ethoxy)propanenitrile] | 2 to 10 nM | 2.1 to 4 µg/mL (≈ 3.7 to 7.05 µM) | 2.1 to 4 µg/mL (≈ 3.7 to 7.05 µM) | 2.1 to 4 µg/mL (≈ 3.7 to 7.05 µM) | 0.4 µg/mL (≈ 0.705 µM) | 10 µg/mL (≈ 17.6 µM) | 10 µg/mL (≈ 17.6 µM) | 0.08 µg/mL (≈ 0.141 µM) | 2 µg/mL (≈ 3.52 µM) | > 50 µg/mL | 2 µg/mL (≈ 3.52 µM) | > 50 µg/mL |  | 0.7 to 2 nM | AA (provided a compound having >85% control of barley powdery mildew) |
| COc1ccc(F)cc1[C@H](Cn1c(=O)n([C@@H]2CCN(C)C2=O)c(=O)c2c(C)c(-n3nccn3)sc21)OCCC#N [Compound I-109, 3-((R)-1-(5-fluoro-2-methoxyphenyl)-2-(5-methyl-3-((R)-1-methyl-2-oxopyrrolidin-3-yl)-2,4-dioxo-6-(2H-1,2,3-triazol-2-yl)-3,4-dihydro-thieno[2,3-d]pyrimidin-1(2H)-yl)ethoxy)propanenitrile] | 2 to 10 nM | 2.1 to 4 µg/mL (≈ 3.7 to 7.05 µM) | 2.1 to 4 µg/mL (≈ 3.7 to 7.05 µM) | 2.1 to 4 µg/mL (≈ 3.7 to 7.05 µM) | 0.4 µg/mL (≈ 0.705 µM) | 2 µg/mL (≈ 3.52 µM) | 2 µg/mL (≈ 3.52 µM) | 0.4 µg/mL (≈ 0.705 µM) | 2 µg/mL (≈ 3.52 µM) | > 50 µg/mL | 2 µg/mL (≈ 3.52 µM) | > 50 µg/mL |  | 0.7 to 2 nM | A (provided a compound having from 70% to 84% control of barley powdery mildew) |
| COc1ccc(F)cc1[C@@H](O)Cn1c(=O)n([C@H]2CCN(C)C2=O)c(=O)c2c(C)c(-n3nccn3)sc21 [Compound I-164, 1-((R)-2-(5-fluoro-2-methoxyphenyl)-2-hydroxyethyl)-5-methyl-3-((S)-1-methyl-2-oxopyrrolidin-3-yl)-6-(2H-1,2,3-triazol-2-yl)thieno[2,3-d]pyrimidine-2,4(1H,3H)-dione] | 10 to 100 nM | 2.1 to 4 µg/mL (≈ 4.08 to 7.77 µM) | 1.1 to 2 µg/mL (≈ 2.14 to 3.89 µM) | 2.1 to 4 µg/mL (≈ 4.08 to 7.77 µM) | 2 µg/mL (≈ 3.89 µM) | 10 µg/mL (≈ 19.4 µM) | > 50 µg/mL | 0.4 µg/mL (≈ 0.777 µM) | 2 µg/mL (≈ 3.89 µM) | > 50 µg/mL | 0.4 µg/mL (≈ 0.777 µM) | > 50 µg/mL |  | 0.7 to 2 nM | B (provided a compound having from 50 to 69% control of barley powdery mildew) |
| COc1ccc(F)cc1[C@@H](O)Cn1c(=O)n([C@@H]2CCN(C)C2=O)c(=O)c2c(C)c(-n3nccn3)sc21 [Compound I-166, 1-((R)-2-(5-fluoro-2-methoxyphenyl)-2-hydroxyethyl)-5-methyl-3-((R)-1-methyl-2-oxopyrrolidin-3-yl)-6-(2H-1,2,3-triazol-2-yl)thieno[2,3-d]pyrimidine-2,4(1H,3H)-dione] | 2 to 10 nM |  |  |  | 2 µg/mL (≈ 3.89 µM) | 10 µg/mL (≈ 19.4 µM) | 10 µg/mL (≈ 19.4 µM) | 2 µg/mL (≈ 3.89 µM) | 10 µg/mL (≈ 19.4 µM) | > 50 µg/mL | 2 µg/mL (≈ 3.89 µM) | > 50 µg/mL |  | 0.7 to 2 nM | B (provided a compound having from 50 to 69% control of barley powdery mildew) |
